Measurements taken from patent publication US5948814A, “Genistein for the treatment of cystic fibrosis” (priority 1998, dated 1999).

Assays:
ΔF508-CFTR [1] = biological target: T1, ΔF508-CFTR (Homo sapiens, UniProt P13569, DEL508-508); test: Other protein tyrosine kinase inhibitors, activation of ΔF508-CFTR; assay type: cell-based; design: expressed in transfected cells; host or cells: NIH/3T3 cells, stably transfected (NIH/3T3-ΔF508, gift of Dr. Richard Mulligan); settings: for activation of ΔF508-CFTR: methodology of Example 1
T1 sequence (P13569 with tags, fused parts or gaps DEL508-508): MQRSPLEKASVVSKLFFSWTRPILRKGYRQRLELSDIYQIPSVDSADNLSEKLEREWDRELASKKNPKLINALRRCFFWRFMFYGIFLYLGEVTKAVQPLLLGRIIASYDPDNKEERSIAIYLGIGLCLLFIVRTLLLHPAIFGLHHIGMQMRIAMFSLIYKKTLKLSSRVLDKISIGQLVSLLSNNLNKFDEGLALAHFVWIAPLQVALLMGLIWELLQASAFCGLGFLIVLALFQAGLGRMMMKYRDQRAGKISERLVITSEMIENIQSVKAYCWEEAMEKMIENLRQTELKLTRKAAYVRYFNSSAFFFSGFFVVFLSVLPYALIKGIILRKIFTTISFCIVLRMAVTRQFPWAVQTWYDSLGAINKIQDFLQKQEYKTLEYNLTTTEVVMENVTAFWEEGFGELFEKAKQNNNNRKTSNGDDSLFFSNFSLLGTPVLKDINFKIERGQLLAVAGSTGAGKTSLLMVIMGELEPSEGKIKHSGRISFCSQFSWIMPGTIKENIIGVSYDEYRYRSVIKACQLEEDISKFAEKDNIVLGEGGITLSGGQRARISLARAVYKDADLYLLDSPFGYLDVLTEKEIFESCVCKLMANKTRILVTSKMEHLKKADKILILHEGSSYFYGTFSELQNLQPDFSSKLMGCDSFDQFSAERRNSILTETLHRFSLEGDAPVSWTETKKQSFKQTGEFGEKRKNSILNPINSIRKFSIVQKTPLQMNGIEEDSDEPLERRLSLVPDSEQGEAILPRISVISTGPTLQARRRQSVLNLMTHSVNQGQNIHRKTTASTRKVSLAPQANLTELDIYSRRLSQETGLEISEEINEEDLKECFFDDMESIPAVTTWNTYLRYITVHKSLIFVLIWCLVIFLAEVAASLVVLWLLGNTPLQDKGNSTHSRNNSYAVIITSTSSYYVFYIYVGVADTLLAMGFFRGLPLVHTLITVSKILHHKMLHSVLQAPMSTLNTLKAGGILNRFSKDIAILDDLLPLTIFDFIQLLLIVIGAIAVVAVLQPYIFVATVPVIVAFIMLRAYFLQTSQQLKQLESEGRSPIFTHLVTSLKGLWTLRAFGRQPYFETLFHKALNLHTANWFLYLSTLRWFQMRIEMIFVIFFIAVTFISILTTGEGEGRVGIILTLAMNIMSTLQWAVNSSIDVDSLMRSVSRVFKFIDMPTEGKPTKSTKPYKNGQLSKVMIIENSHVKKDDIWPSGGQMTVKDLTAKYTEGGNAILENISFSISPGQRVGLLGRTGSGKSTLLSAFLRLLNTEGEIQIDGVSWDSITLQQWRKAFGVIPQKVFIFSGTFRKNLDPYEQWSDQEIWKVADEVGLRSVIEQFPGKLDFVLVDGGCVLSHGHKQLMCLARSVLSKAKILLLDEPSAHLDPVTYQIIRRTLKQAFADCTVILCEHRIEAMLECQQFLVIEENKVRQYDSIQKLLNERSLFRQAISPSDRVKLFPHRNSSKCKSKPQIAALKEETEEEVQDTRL

ΔF508-CFTR [2] = biological target: T1, ΔF508-CFTR; test: Patch clamp, cell-attached patches, macroscopic current, NIH/3T3-ΔF508 cells; settings: 200 μM CPT-cAMP after 10 μM forskolin
Protocol: FIGS. 3A and B show recordings of the potentiation of wild-type (wt) and ΔF508-CFTR channel activity by genistein. Channels in cell-attached patches from NIH/3T3-CFTR (FIG. 3A) and NIH/3T3-ΔF508cells (FIG. 3B), were stimulated as indicated with 10 μM forskolin and 50μ genestein.
Cell culture: NIH/3T3-CFTR, NIH/3T3-ΔF508, and NIH/3T3 mock cells (generous gifts from Dr. Richard Mulligan of Children's Hospital and Medical Center, Harvard Medical School) were grown as described [Bradbury et al., 1992] at 37° C. and 5% CO2 in Dulbecco's modified Eagle's medium-H21 supplemented with 10% new-born calf serum, 4 mM glutamine, 25 mM glucose, 100 μg/ml penicillin, 100 μg/ml streptomycin, and 50 μg/ml gentamicin. Cells were maintained in T75 flasks, passaged at 90-95% confluency, and split one to four. For measurements of I^- efflux and in vivo phosphorylation, cells were seeded onto 35-mm dishes at […]. For patch-clamp experiments, cells were grown on coverglass chips in 35-mm culture dishes. Media were replaced 24 hours after plating and thereafter every 48 hours. In all cases, media were changed on the day before I^- efflux studies, NIH/3T3-ΔF508 cells were transferred to 27° C. three days before use, and 1 day prior to study, media were supplemented with 5 mM butyrate. For patch-clamp studies, where a constant level of functional ΔF508-CFTR was not essential, NIH/3T3-ΔF508 cells were cultured at 27° C. for 2-6 days before use. Calu-3 cells were grown and maintained as described by Hunter [1995].
Electrophysiology: CFTR channel currents were recorded at room temperature (~22° C.) with a patch-clamp amplifier (EPC-9, Heka Electronic), filtered at 100 Hz with a built-in three-pole Bessel filter, and stored on videotapes. Data were subsequently refiltered at 25 Hz with an eight-pole Bessel filter (Frequency Device, Havervill, Mass.) and captured onto a hard disk at a sampling rate of 50 Hz. […] Patch-clamp electrodes were made from Corning 7052 glass capillaries (Warner Instrument, Hammed, Conn.). The pipette resistance was usually 3-5 M.OMEGA., and the seal resistance was >20 G.OMEGA.. The pipette solution contained (in mM) 140 N-methyl-D-glucamine chloride (NMDG-C1), 2 MgCl2, 5Ca Cl2, and 10 HEPES (pH 7.4 with NMDG). The superfusion solution contained (in mM) 150 […], 2 MgCl2, 1 EGTA, 5 glucose, and 5 HEPES (pH 7.4 with NaOH). […]
Statistics: Mean currents and variance were estimated with Igor (Wavemetrics, Lake Oswego, Oreg.). […] Po was calculated from patches containing a single channel by dividing the open channel current amplitude with the mean-current amplitude. […] Calculated values are presented as means±SE. […]

wt-CFTR = wt-CFTR (Homo sapiens, UniProt P13569); settings: ATP without genistein; stated for both wt- and ΔF508-CFTR
Sequence of wt-CFTR (P13569 whole entry): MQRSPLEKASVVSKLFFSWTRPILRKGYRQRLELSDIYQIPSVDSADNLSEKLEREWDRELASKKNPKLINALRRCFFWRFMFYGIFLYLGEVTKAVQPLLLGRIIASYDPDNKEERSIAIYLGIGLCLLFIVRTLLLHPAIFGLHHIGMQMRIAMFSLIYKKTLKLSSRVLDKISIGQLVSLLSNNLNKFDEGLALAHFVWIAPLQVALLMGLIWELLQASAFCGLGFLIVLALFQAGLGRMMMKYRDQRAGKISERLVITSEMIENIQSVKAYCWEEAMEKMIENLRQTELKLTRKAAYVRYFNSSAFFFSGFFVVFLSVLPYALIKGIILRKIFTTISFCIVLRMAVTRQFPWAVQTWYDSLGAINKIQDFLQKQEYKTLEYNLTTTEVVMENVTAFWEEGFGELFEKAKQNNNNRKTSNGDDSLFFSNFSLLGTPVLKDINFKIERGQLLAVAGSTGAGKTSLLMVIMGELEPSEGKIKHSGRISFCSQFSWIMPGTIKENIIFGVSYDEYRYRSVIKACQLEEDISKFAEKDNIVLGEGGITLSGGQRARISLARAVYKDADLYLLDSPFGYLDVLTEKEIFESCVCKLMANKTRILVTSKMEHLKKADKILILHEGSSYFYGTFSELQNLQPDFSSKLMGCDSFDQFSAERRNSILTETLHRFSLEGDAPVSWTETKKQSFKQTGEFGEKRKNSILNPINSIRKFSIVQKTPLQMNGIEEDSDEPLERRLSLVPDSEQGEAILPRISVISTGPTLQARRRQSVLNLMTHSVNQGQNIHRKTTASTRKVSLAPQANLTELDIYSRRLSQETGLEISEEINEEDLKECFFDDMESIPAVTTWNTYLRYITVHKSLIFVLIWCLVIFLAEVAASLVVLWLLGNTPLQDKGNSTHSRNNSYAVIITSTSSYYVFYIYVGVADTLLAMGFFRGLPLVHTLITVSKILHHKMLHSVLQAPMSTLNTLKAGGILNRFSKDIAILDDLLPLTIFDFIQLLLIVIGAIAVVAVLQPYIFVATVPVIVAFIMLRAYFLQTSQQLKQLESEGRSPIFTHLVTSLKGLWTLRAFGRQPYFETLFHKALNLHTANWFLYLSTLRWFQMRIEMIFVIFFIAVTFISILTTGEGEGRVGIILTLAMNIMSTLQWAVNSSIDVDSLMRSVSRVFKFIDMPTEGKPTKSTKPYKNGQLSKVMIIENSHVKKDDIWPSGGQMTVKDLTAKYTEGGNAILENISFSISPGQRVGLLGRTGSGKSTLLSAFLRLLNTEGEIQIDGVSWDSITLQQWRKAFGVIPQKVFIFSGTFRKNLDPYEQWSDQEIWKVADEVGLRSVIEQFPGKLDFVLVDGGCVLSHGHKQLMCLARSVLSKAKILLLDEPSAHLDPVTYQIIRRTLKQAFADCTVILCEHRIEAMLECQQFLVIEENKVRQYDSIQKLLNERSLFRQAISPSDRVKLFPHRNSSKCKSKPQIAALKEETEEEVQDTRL
Protocol: (§1) FIGS. 9A and B are recordings of the effects of genistein on CFTR gating in excised inside-out patches from NIH/3T3-CFTR or NIH/3T3-ΔF508 cells. CFTR channels were activated by 10 μM forskolin +20 nM calyculin A before excision into an inside-out configuration. Presence of calyculin A helps to slow channel dephosphorylation. (A): continuous 14.5 minute recording of a patch containing wt-CFTR. Expanded traces are 22 seconds in length. ATP (500 μM) with or without 20 μM genistein was present as indicated. (B): 2 traces of 44 seconds in length of an excised inside-out patch with CFTR-ΔF508.
(§2) Electrophysiology: CFTR channel currents were recorded at room temperature (~22° C.) with a patch-clamp amplifier (EPC-9, Heka Electronic), filtered at 100 Hz with a built-in three-pole Bessel filter, and stored on videotapes. Data were subsequently refiltered at 25 Hz with an eight-pole Bessel filter (Frequency Device, Havervill, Mass.) and captured onto a hard disk at a sampling rate of 50 Hz. […] Patch-clamp electrodes were made from Corning 7052 glass capillaries (Warner Instrument, Hammed, Conn.). The pipette resistance was usually 3-5 M.OMEGA., and the seal resistance was >20 G.OMEGA.. The pipette solution contained (in mM) 140 N-methyl-D-glucamine chloride (NMDG-C1), 2 MgCl2, 5Ca Cl2, and 10 HEPES (pH 7.4 with NMDG). The superfusion solution contained (in mM) 150 […], 2 MgCl2, 1 EGTA, 5 glucose, and 5 HEPES (pH 7.4 with NaOH). In excised inside-out patch experiments, the bath solution contained (in mM) 130 MNDG-Cl, 10 EGTA, 10 HEPES, 20 tetraethylammonium chloride, 8 Tris, and 2 MgCl2 (pH 7.4 with NMDG). Pipette potential was held at 50 mV relative to the bath. Downward deflections represent channel opening.
(§3) Channels were first activated in cell-attached patches with forskolin plus calyculin A, a membrane-permeant phosphatase inhibitor [Suganuma et al., 1991]. Patches were then excised into an inside-out configuration.

ΔF508-CFTR [3] = biological target: T1, ΔF508-CFTR; test: CFTR gating in excised inside-out patches, NIH/3T3-ΔF508 cells; settings: ATP without genistein; stated for both wt- and ΔF508-CFTR
Protocol: as §1, §2, §3

CFTR = test: Other protein tyrosine kinase inhibitors, enhancement of CFTR activity; assay type: cell-based; settings: methodology of Example 1
Protocol: Based on the results of Example 1 other protein tyrosine kinase inhibitors were tested using the methodology of Example 1.

Structure (SMILES) | activation of ΔF508-CFTR (ΔF508-CFTR [1]) | other results
Nc1ccc(-c2cc(=O)c3cc(O)ccc3o2)cc1 [aminogenistein, 4'-amino-6-hydroxyflavone] |  | ΔF508-CFTR stimulation activity among protein tyrosine kinase inhibitors (ΔF508-CFTR [1]): is the only protein tyrosine kinase inhibitor that has such an effect
O=C(O)c1cc(N(Cc2ccccc2O)Cc2cc(O)ccc2O)ccc1O [lavendustin A] | failed to activate ΔF508-CFTR | 
COC1C=CC=C(C)C(=O)NC2=CC(=O)C=C(C2=O)C(OC)C(C)CC(OC)C(OC)C(C)C=C(C)C1OC(N)=O (stereo not drawn) [herbimycin A] | failed to activate ΔF508-CFTR | 
Nc1ncnc2c1nc(Sc1ccc(Cl)cc1)n2[C@@H]1O[C@@H]2COP(=O)(O)O[C@H]2[C@H]1O [CPT-cAMP, 8-(4-chlorophenylthio)-cAMP, reference compound] |  | effect on mean-current amplitude of forskolin-stimulated cells (ΔF508-CFTR [2]): failed to increase the mean-current amplitude
COc1c(C=O)c(O)cc2c1C(=O)c1ccccc1C2=O [damnacanthal] | failed to activate ΔF508-CFTR | 
Cc1cc(O)c2c(c1)C(=O)c1cc(O)cc(O)c1C2=O [emodin] | failed to activate ΔF508-CFTR | 
CC(=O)OCOC(c1ccc2ccccc2c1)P(=O)(OCOC(C)=O)OCOC(C)=O (stereo not drawn) [HNMP-A (AM)^3] | failed to activate ΔF508-CFTR | 
CCOc1cc(C=C(C#N)C(N)=O)cc(CSc2ccccc2)c1O [ST638] | failed to activate ΔF508-CFTR | 
COC1=C2C[C@@H](C)C[C@H](OC)[C@H](O)[C@@H](C)/C=C(\C)[C@H](OC(N)=O)[C@@H](OC)/C=C\C=C(/C)C(=O)NC(=CC1=O)C2=O [geldanamycin] | failed to activate ΔF508-CFTR | 
O=C(O)c1cc(N(Cc2ccccc2O)Cc2ccccc2O)ccc1O [lavendustin B] | failed to activate ΔF508-CFTR | 
Nc1ncnc2c1ncn2[C@@H]1O[C@H](COP(=O)(O)OP(=O)(O)OP(=O)(O)O)[C@@H](O)[C@H]1O [ATP, reference compound] |  | channel open time (wt-CFTR): 302±2 milliseconds; channel open time (ΔF508-CFTR [3]): 302±2 milliseconds
O=c1c(O)c(-c2ccc(O)c(O)c2)oc2cc(O)cc(O)c12 [quercetin] |  | enhancement of CFTR activity (CFTR): failed to enhance CFTR activity
COC(=O)c1cc(NCc2cc(O)ccc2O)ccc1O [lavendustin C methyl ester] | failed to activate ΔF508-CFTR | 
O=c1c(-c2ccc(O)cc2)coc2cc(O)ccc12 [daidzein] | failed to activate ΔF508-CFTR | 
Cc1ccc(-c2nn(C(C)(C)C)c3ncnc(N)c23)cc1 [PP1] | failed to activate ΔF508-CFTR | 
Oc1cc(O)cc(/C=C/c2ccc(O)c(O)c2)c1 [piceatannol] | failed to activate ΔF508-CFTR | 
COC(=O)/C=C/c1cc(O)ccc1O [erbstatin analogue] | failed to activate ΔF508-CFTR | 
